Results from patent US9750756B2, “Celecoxib compositions” (Pfizer Inc., priority 1998, dated 2017).

Assay: Effect of food study (Example 17)
Type: in vivo, human
Details: healthy adult subjects, single 50 mg or 100 mg capsule doses, fasting or fed
Procedure: An open-label randomized, single dose, four-way crossover study was employed to evaluate the dose proportionality and the effect of food on the pharmacokinetic profile of celecoxib in healthy adult subjects. Safety was assessed based on adverse events, vital signs and clinical laboratory tests. Twenty four healthy adult subjects were randomized to receive the following single doses of celecoxib: (A) a 50 mg dose capsule under fasting conditions, (B) a 50 mg dose capsule immediately following a high fat breakfast, (C) a 100 mg dose capsule under fasting conditions, and (D) a 100 mg dose capsule immediately following a high fat breakfast. The subjects received the study medication on days 1, 8, 15 and 22 in one of four treatment sequences (ADBC; BACD; CBDA; and DCAB). The specific composition of the 100 mg dose capsule is disclosed in Example 1. The specific composition of the 50 mg dose capsule is disclosed in Table 17A below:
Blood samples were collected at −0.25 (predose), 0.5, 1, 1.5, 2, 3, 4, 6, 8, 12, 16, 24, 36 and 48 hours post dose. Analyses of the separated plasma were performed at PPD Pharmaco, Richmond, Va. Celecoxib plasma concentrations were determined using a validated high performance liquid chromatography (“HPLC”) procedure with a lower limit of detection of 10.0 ng/ml. […] All adverse events were mild in severity.

With `Cc1ccc(-c2cc(C(F)(F)F)nn2-c2ccc(S(N)(=O)=O)cc2)cc1` [celecoxib, 4-[5-(4-methylphenyl)-3-(trifluoromethyl)-1H-pyrazol-1-yl]benzenesulfonamide] the “changes in vital signs or physical examinations” value was “no clinically significant changes” and the “severity of adverse events” value was “mild”.
